# Legend:
# [1] = Acute toxicity in po dosed Rattus norvegicus (rat); format: organism-based; settings: in vivo
# [2] = Toxicity in Cyprinidae (carp fish); format: ADME, organism-based; settings: in vivo
# [3] = Solubility of the compound in water; format: physicochemical; settings: buffer
# [4] = Octanol-water partition co-efficient, log P of the compound at 20 degC; format: physicochemical
# [5] = Acute toxicity in Rattus norvegicus (rat) compound administered intradermally; format: organism-based; settings: in vivo
# [6] = Acute toxicity in Rattus norvegicus (rat) compound administered through inhalation; format: organism-based; settings: in vivo, inhaled or intranasal
structure (smiles),measurement,setting,value
FC(F)(F)c1ccc(OCCCOc2c(Cl)cc(OCC=C(Cl)Cl)cc2Cl)nc1 [PYRIDALYL],LD50,[1],> 5000 mg/kg
same,LC50,[2],> 10 µg/mL
same,solubility,[3],0.15 ppb
same,logP,[4],8.1
same,LD50,[5],> 2000 mg/kg
same,LC50,[6],> 2.01 µg/mL
